# Test results: patent US11896685B2, “Core-shell network structure comprising biopolymer and composition comprising same” (AMOREPACIFIC CORPORATION, priority 2018, dated 2024)
# System: human keratinocytes (HaCaT)
# Test: Scratch wound healing (skin regeneration) test, time-lapse microscopy
# Assay type: cell-based
# Details: after 48 hours, scratched HaCaT
# Experimental: First, human keratinocytes (HaCaT) purchased from CLS (Cat No. 300493) were seeded onto a 24-well cell culture plate at a concentration of 2.0×10^5 cells/600 μL, in DMEM (Lonza, #12-604F) containing 10% fetal bovine serum (GIBCO, #16000-044) and antibiotics (Lonza, #17-602E). After culturing in a 5% CO2 incubator at 37° C. for 24 hours and replacing the medium with DMEM containing 1% fetal bovine serum, the cells were cultured further for 16 hours. After the cells were filled on the culture plate, the cells were damaged by applying a linear scratch using a scratcher (SPL, #SPL201925) and then washed twice. Core-shell network solutions comprising 0.005 wt %, 0.25 wt %, 0.5 wt % or 1 wt % of the core-shell network structure based on the total weight of the solution, were prepared in the same manner as in Example 3 (Examples 4-7). […]
# The negative control group, the positive control group and the groups treated with the core-shell network structure at different concentrations were placed on a time-lapse microscope (JuLI™ Stage, NanoEnT) stage in a CO2 incubator and each well was imaged for 48 hours with 1-hour intervals. Then, wound healing area (%) was determined from the acquired images using a software analysis tool (Wound Healing tool).
substance,measurement,setting,value
madecassoside,wound healing area as compared to the negative control group,,1.37 times
same,wound healing area,negative control 30.06%,41.25%
